Where a name gives a salt, the structure may show the parent alone.

Experiment [1] has as its system gram-positive and gram-negative bacteria. Put plainly: Antibacterial spectra in vitro (MIC), summary in words. It is filed as cell-based. To be noted: compared to cefroxadine. The text has this: Minimum inhibitory concentrations (MIC.) (mcg/ml) as determined by serial
dilution method on agar plates

For the next experiment, the system named is Escherichia coli No. 29. Put plainly: Curative effect by oral administration in mice infected intraperitoneally with Escherichia coli No. 29 (survival over 7 days). It is filed as in vivo. The conditions noted are these: for number of surviving mice: three mice in each group, 7 days. An excerpt: Thus, some tests were made to evaluate the curative effects of the new compound of this invention in therapeutic treatment of bacterial infections when the new compound was orally given to mice (average body weight 20 g) which had been infected with Escherichia coli No. 29. In these tests for therapeutic treatment of the bacterial infection, mice (three mice in each group) were inoculated intraperitoneally with Escherichia coli No. 29 at an inoculmn dose of 3.25×10^5 CFU/mouse and then immediately treated by oral administration of the test compound. For the subsequent 7 days, the mice were kept under observation and the number of surviving mice was counted.

As for `CSC1=C(C(=O)O)N2C(=O)C(NC(=O)C(C(=O)O)c3ccsc3)C2OC1` (stereo not shown) [Example 4(b), 7-[2-(3-thienyl)-2-carboxyacetamido]-1-oxa-1-dethia-3-methylthio-3-cephem-4-carboxylic acid], in experiment [1], the “antibacterial activity against resistant strains of bacteria” value (“antibacterial activity” for short) is “effective and higher antibacterial activity against resistant strains of bacteria than cefroxadine”; the “antibacterial spectrum (range)” value is “wider range of the antibacterial spectrum than cefroxadine”.

Consider `CSC1=C(C(=O)O)N2C(=O)C(NC(=O)Cc3cccs3)C2OC1` (stereo not shown) [Example 1(b), 7-(2-thienylacetamido)-1-oxa-1-dethia-3-methylthio-3-cephem-4-carboxylic acid], for which, in experiment [1], the “antibacterial activity” value is “effective and higher antibacterial activity against resistant strains of bacteria than cefroxadine”; the “antibacterial spectrum (range)” value is “wider range of the antibacterial spectrum than cefroxadine”.

On to `CSC1=C(C(=O)O)N2C(=O)C(NC(=O)Cc3ccsc3)C2OC1` (stereo not shown) [Example 2(b), 7-(3-thienylacetamido)-1-oxa-1-dethia-3-methylthio-3-cephem-4-carboxylic acid], for which, in experiment [1], the “antibacterial activity” value is “effective and higher antibacterial activity against resistant strains of bacteria than cefroxadine”; the “antibacterial spectrum (range)” value was “wider range of the antibacterial spectrum than cefroxadine”.

Take `CSC1=C(C(=O)O)N2C(=O)C(NC(=O)C(C(=O)O)c3cccs3)C2OC1` (stereo not shown) [Example 3(b), 7-[2-(2-thienyl)-2-carboxyacetamido]-1-oxa-1-dethia-3-methylthio-3-cephem-4-carboxylic acid]: in experiment [1], the “antibacterial activity” value is “effective and higher antibacterial activity against resistant strains of bacteria than cefroxadine”; the “antibacterial spectrum (range)” value is recorded as “wider range of the antibacterial spectrum than cefroxadine”.

As for `CO/N=C(\C(=O)NC1C(=O)N2C(C(=O)O)=C(SC)COC12)c1csc(N)n1` (stereo not drawn) [Example 6(b), 7-[2-(2-amino-4-thiazolyl)-2-methoxyiminoacetamido]-1-oxa-1-dethia-3-methylthio-3-cephem-4-carboxylic acid trifluoroacetate (syn-isomer)], the “number of surviving mice” value in the experiment with Escherichia coli No. 29 (0.1 mg/mouse) was found to be 1 mice; in the experiment on Escherichia coli No. 29 (1 mg/mouse), 3 mice; in the experiment with Escherichia coli No. 29 (5 mg/mouse), 3 mice; in the experiment on Escherichia coli No. 29 (10 mg/mouse), 3 mice. In addition, the “curative effects in therapeutic treatment of the bacterial infection in vivo” value in the experiment with Escherichia coli No. 29 (mice infected with Escherichia coli No. 29) is on record as “better curative effects in therapeutic treatment of the bacterial infection in vivo”.
